{"source": "patent US20070281900A1", "about": "“COMPOSITIONS AND METHODS FOR LIPID AND POLYPEPTIDE BASED siRNA [sequence] [sequence]” (NASTECH PHARMACEUTICAL COMPANY INC., priority 2006, published 2007)", "tested_on": "9L/LacZ cells", "assay": "Cell confluency as measure of effect of transfection condition on cell growth", "conditions": "Qneg siRNA 100 nM, PN183 7 μM or PN73 2 μM where named, nontransfected cells 70%", "method": "For each transfection mixture, 9L/LacZ cells (passage 8) were plated at density of 6.0×10^3 cells/well on a 96-well plate. […] The cationic lipid […]™ served as a positive transfection control. Non-transfected cells served as a negative transfection control and a positive control for cell growth.\nTransfection efficiency was calculated by dividing the number of fluorescently labeled cells by the total number of cells and multiplying by 100. Cell confluency was used to measure the effect of each transfection condition on cell growth.", "note": "Peptide text beside a SMILES is read from it."}
{"smiles": "C[C@@H](O)[C@H](NC(=O)[C@H](CCC(=O)O)NC(=O)[C@H](Cc1c[nH]c2ccccc12)NC(=O)[C@H](Cc1c[nH]c2ccccc12)NC(=O)[C@@H](NC(=O)[C@H](CCC(=O)O)NC(=O)[C@@H](N)CCCCN)[C@@H](C)O)C(=O)N[C@@H](Cc1c[nH]c2ccccc12)C(=O)N[C@@H](Cc1c[nH]c2ccccc12)C(=O)N[C@H](C(=O)N[C@@H](CCC(=O)O)C(=O)N[C@@H](Cc1c[nH]c2ccccc12)C(=O)N[C@@H](CO)C(=O)N[C@@H](CCC(N)=O)C(=O)N1CCC[C@H]1C(=O)NCC(=O)N[C@@H](CCCNC(=N)N)C(=O)N[C@@H](CCCCN)C(=O)N[C@@H](CCCCN)C(=O)N[C@@H](CCCNC(=N)N)C(=O)N[C@@H](CCCNC(=N)N)C(=O)N[C@@H](CCC(N)=O)C(=O)N[C@@H](CCCNC(=N)N)C(=O)N[C@@H](CCCNC(=N)N)C(=O)N[C@@H](CCCNC(=N)N)C(=O)N1CCC[C@H]1C(=O)N1CCC[C@H]1C(=O)N[C@@H](CCC(N)=O)C(N)=O)[C@@H](C)O", "note": "[PN183] (H-KETWWETWWTEWSQPGRKKRRQRRRPPQ-NH2)", "values": [{"measurement": "% Cell Confluency 20 nM", "setting": "lipid group 20 nM", "value": 70, "unit": "%"}, {"measurement": "% Cell Confluency 60 nM", "setting": "lipid group 60 nM", "value": 70, "unit": "%"}]}
